# Measured values taken from patent US11161850B2, “Fused pyrazine derivatives as A2A / A2B inhibitors” (Incyte Corporation, priority 2018, dated 2021).
# Like-named read-outs stand apart in the source and are kept apart here.
# What was measured:
# Adenosine A2A = Adenosine A2A (Homo sapiens (Human), UniProt P29274); experiment: A2A Tag-Lite HTRF assay; assay type: binding
# Text: Example C. A2A Tag-Lite® HTRF Assay
# [1] = biological target: human adenosine A2B receptor (Homo sapiens (Human), UniProt P29275); experiment: Adenosine A2B Receptor Cyclic AMP GS Assay; assay type: cell-based; conditions: HEK-293 cells expressing human A2B, agonist NECA 12 nM
# human adenosine A2B receptor, sequence (P29275 whole entry): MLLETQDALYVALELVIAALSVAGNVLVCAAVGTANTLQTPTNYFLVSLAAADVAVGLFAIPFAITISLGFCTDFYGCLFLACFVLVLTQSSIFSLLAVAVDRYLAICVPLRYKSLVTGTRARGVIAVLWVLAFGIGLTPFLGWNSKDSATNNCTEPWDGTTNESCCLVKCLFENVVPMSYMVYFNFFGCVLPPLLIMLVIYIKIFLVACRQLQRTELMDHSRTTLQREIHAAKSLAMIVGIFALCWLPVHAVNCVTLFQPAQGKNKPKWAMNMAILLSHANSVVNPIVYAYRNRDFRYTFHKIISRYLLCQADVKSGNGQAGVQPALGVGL
# Procedure: Example B. Adenosine A2B Receptor Cyclic AMP GS Assay
# Stably transfected HEK-293 cells expressing the human adenosine A2B receptor (Perkin Elmer) were maintained in MEM culture medium with 10% FBS and 100 μg/mL Geneticin (Life Technologies). 18 to 24 hours prior to assay, geneticin was removed from culture. The cisbio cAMP-GS Dynamic kit utilizing the FRET (Fluorescence Resonance Energy Transfer) technology was used to measure cAMP accumulation in the cells. Compounds of the present disclosure at an appropriate concentration were mixed with 10000 cells/well in white 96 well half area plates (Perkin Elmer) for 30 min at room temperature gently shaking. Agonist, NECA (R&D Technologies) at 12 nM was added to each well for 60 min at room temperature gently shaking. Detection reagents, d2-labeled cAMP (acceptor) and anti-cAMP cryptate (donor) were added to each well for 60 min at rt gently shaking. Plates were read on Pherastar (BMG Labtech), fluorescence ratio 665/620 was calculated and EC50 determination was performed by fitting the curve of percent of control versus the log of the compound concentration using GraphPad Prism.
# [2] = Tag-Lite Adenosine A2A labeled cells, fluorescent ligand 12.5 nM, read-out: A2A_Ki
# [3] = read-out: A2A_Ki, Tag-Lite Adenosine A2A labeled cells, fluorescent ligand 12.5 nM
# Adenosine A2A, sequence (P29274 whole entry): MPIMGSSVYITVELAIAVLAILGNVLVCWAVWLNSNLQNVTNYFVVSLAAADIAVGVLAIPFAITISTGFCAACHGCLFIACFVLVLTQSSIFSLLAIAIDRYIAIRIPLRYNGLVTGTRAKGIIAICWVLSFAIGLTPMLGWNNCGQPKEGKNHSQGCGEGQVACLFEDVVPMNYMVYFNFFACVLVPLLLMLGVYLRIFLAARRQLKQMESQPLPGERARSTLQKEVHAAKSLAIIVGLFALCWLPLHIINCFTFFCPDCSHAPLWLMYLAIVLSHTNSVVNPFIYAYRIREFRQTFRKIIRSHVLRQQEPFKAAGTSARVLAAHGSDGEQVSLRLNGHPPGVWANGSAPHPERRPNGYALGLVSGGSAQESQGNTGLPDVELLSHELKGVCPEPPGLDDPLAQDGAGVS
SMILES,Ki (Adenosine A2A; [2]) [nM],EC50 ([1]; A2B_cAMP_EC50 (nM)) [nM],Ki (Adenosine A2A) [nM],Ki (Adenosine A2A; [3]) [nM],EC50 ([1]; read-out: A2B_cAMP_EC50) [nM]
"N#Cc1cccc(-c2nc(N)c3cc(Cc4ccccc4F)nn3c2C#N)c1 [Example 20, 4-Amino-6-(3-cyanophenyl)-2-(2-fluorobenzyl)pyrazolo[1,5-a]pyrazine-7-carbonitrile]",< 10,< 10,,,
"Cc1cc(-c2c(-c3cccc(C#N)c3F)nc(N)c3nc(C(O)c4c(F)cccc4F)nn23)cc(C)n1 (stereo not shown) [Example 126, 3-(8-amino-2-((2,6-difluorophenyl)(hydroxy)methyl)-5-(2,6-dimethylpyridin-4-yl)-[1,2,4]triazolo[1,5-a]pyrazin-6-yl)-2-fluorobenzonitrile]",< 10,10 to 100,,,
"CCOC(=O)Nc1nc2c(N)nc(-c3cccc(C#N)c3)cn2n1 [Example 14, Ethyl(8-amino-6-(3-cyanophenyl)-[1,2,4]triazolo[1,5-a]pyrazin-2-yl)carbamate]",,> 1000,10 to 100,,
"N#Cc1cccc(-c2nc(N)c3nc(C(O)c4c(F)cccc4F)nn3c2-c2ccc3nncn3c2)c1 (racemic) [Example 104, 3-(5-([1,2,4]triazolo[4,3-a]pyridin-6-yl)-8-amino-2-((2,6-difluorophenyl)(hydroxy)methyl)-[1,2,4]triazolo[1,5-a]pyrazin-6-yl)benzonitrile]",< 10,10 to 100,,,
"N#Cc1cccc(-c2nc(N)c3nc(Cc4ccccn4)nn3c2-c2ccc(O)nc2)c1 [Example 62, 3-(8-amino-5-(6-hydroxypyridin-3-yl)-2-(pyridin-2-ylmethyl)-[1,2,4]triazolo[1,5-a]pyrazin-6-yl)benzonitrile]",< 10,< 10,,,
"[2H]C([2H])([2H])n1nc(-c2c(-c3cccc(C#N)c3)nc(N)c3nc(Cc4ccccn4)nn23)ccc1=O [Example 127, 3-(8-amino-5-(1-(methyl-d3)-6-oxo-1,6-dihydropyridazin-3-yl)-2-(pyridin-2-ylmethyl)-[1,2,4]triazolo[1,5-a]pyrazin-6-yl)benzonitrile]",,< 10,< 10,,
"N#Cc1cccc(-c2nc(N)c3cc(CN4CCC4)nn3c2-c2ccncn2)c1 [Example 13, 3-(4-Amino-2-(azetidin-1-ylmethyl)-7-(pyrimidin-4-yl)pyrazolo[1,5-a]pyrazin-6-yl)benzonitrile]",,100 to 1000,10 to 100,,
"Cc1ncoc1-c1c(-c2cccc(C#N)c2)nc(N)c2nc(C(NCCO)c3c(F)cccc3F)nn12 (stereo not shown) [Example 79, 3-(8-amino-2-((2,6-difluorophenyl)((2-hydroxyethyl)amino)methyl)-5-(4-methyloxazol-5-yl)-[1,2,4]triazolo[1,5-a]pyrazin-6-yl)benzonitrile]",< 10,< 10,,,
"N#Cc1cccc(-c2nc(N)c3nc(C(O)c4ccccc4Cl)nn3c2-c2ccncn2)c1 (single isomer, unassigned) [Example 58, 3-(8-Amino-2-((2-chlorophenyl)(hydroxy)methyl)-5-(pyrimidin-4-yl)-[1,2,4]triazolo[1,5-a]pyrazin-6-yl)benzonitrile]",,,,< 10,< 10
"N#Cc1cccc(-c2nc(N)c3ncnn3c2-c2ccc(=O)[nH]c2)c1 [Example 15, 3-(8-Amino-5-(6-oxo-1,6-dihydropyridin-3-yl)-[1,2,4]triazolo[1,5-a]pyrazin-6-yl)benzonitrile]",< 10,< 10,,,
"N#Cc1cccc(-c2nc(N)c3cc(C(=O)N4CC(O)C4)nn3c2-c2ccncn2)c1 [Example 12, 3-(4-Amino-2-(3-hydroxyazetidine-1-carbonyl)-7-(pyrimidin-4-yl)pyrazolo[1,5-a]pyrazin-6-yl)benzonitrile]",< 10,10 to 100,,,
"N#Cc1cccc(-c2nc(N)c3nc(Oc4ccccc4F)nn3c2-c2ccncn2)c1 [Example 39, 3-(8-Amino-2-(2-fluorophenoxy)-5-(pyrimidin-4-yl)-[1,2,4]triazolo[1,5-a]pyrazin-6-yl)benzonitrile]",< 10,< 10,,,
"N#Cc1cccc(-c2nc(N)c3nc(C(O)c4ccccc4F)nn3c2-c2ccncn2)c1 (single isomer, unassigned) [Example 55, 3-(8-Amino-2-((2-fluorophenyl)(hydroxy)methyl)-5-(pyrimidin-4-yl)-[1,2,4]triazolo[1,5-a]pyrazin-6-yl)benzonitrile]",,< 10,< 10,,
"N#Cc1cccc(-c2nc(N)c3nc(Cc4cccc5ocnc45)nn3c2-c2ccncn2)c1 [Example 63, 3-(8-amino-2-(benzo[d]oxazol-4-ylmethyl)-5-(pyrimidin-4-yl)-[1,2,4]triazolo[1,5-a]pyrazin-6-yl)benzonitrile]",< 10,< 10,,,
"CCNC(=O)c1cc2c(N)nc(-c3cccc(C#N)c3)c(-c3ccncn3)n2n1 [Example 4, 4-Amino-6-(3-cyanophenyl)-N-ethyl-7-(pyrimidin-4-yl)pyrazolo[1,5-a]pyrazine-2-carboxamide]",< 10,10 to 100,,,
"N#Cc1cccc(-c2nc(N)c3nc(Cc4c(F)cccc4CNCC(N)=O)nn3c2-c2ccncn2)c1 [Example 69, 2-((2-((8-amino-6-(3-cyanophenyl)-5-(pyrimidin-4-yl)-[1,2,4]triazolo[1,5-a]pyrazin-2-yl)methyl)-3-fluorobenzyl)amino)acetamide]",< 10,< 10,,,
"N#Cc1cccc(-c2nc(N)c3nc(Cc4c(F)cccc4CN4CCNC(=O)C4)nn3c2-c2ccncn2)c1 [Example 70, 3-(8-amino-2-(2-fluoro-6-((3-oxopiperazin-1-yl)methyl)benzyl)-5-(pyrimidin-4-yl)-[1,2,4]triazolo[1,5-a]pyrazin-6-yl)benzonitrile]",< 10,10 to 100,,,
"N#Cc1cccc(-c2nc(N)c3nc(Cc4c(F)cccc4CN[C@H]4C[C@@H](C(=O)O)C4)nn3c2-c2ccncn2)c1 [Example 71, (1S,3S)-3-((2-((8-amino-6-(3-cyanophenyl)-5-(pyrimidin-4-yl)-[1,2,4]triazolo[1,5-a]pyrazin-2-yl)methyl)-3-fluorobenzyl)amino)cyclobutane-1-carboxylic Acid]",< 10,< 10,,,
"Cc1ncoc1-c1c(-c2cccc(C#N)c2)nc(N)c2nc(Cc3c(F)cccc3CN3CC[C@@](C)(C(=O)O)C3)nn12 [Example 76, (R)-1-(2-((8-amino-6-(3-cyanophenyl)-5-(4-methyloxazol-5-yl)-[1,2,4]triazolo[1,5-a]pyrazin-2-yl)methyl)-3-fluorobenzyl)-3-methylpyrrolidine-3-carboxylic Acid]",< 10,10 to 100,,,
"Cc1nc(C(O)C(F)F)c(-c2c(-c3cccc(C#N)c3)nc(N)c3cc(Cc4ccccn4)nn23)o1 (stereo not shown) [Example 35, 3-(4-Amino-7-(4-(2,2-difluoro-1-hydroxyethyl)-2-methyloxazol-5-yl)-2-(pyridin-2-ylmethyl)pyrazolo[1,5-a]pyrazin-6-yl)benzonitrile]",< 10,< 10,,,
"N#Cc1cccc(-c2nc(N)c3cc(Cc4c[nH]c5cccnc45)nn3c2-c2ccncn2)c1 [Example 96, 3-(2-((1H-pyrrolo[3,2-b]pyridin-3-yl)methyl)-4-amino-7-(pyrimidin-4-yl)pyrazolo[1,5-a]pyrazin-6-yl)benzonitrile]",< 10,10 to 100,,,
"CCNC(=O)c1cc2c(N)nc(-c3cccc(C#N)c3)c(-c3ccc(=O)n(C)c3)n2n1 [Example 3, 4-Amino-6-(3-cyanophenyl)-N-ethyl-7-(1-methyl-6-oxo-1,6-dihydropyridin-3-yl)pyrazolo[1,5-a]pyrazine-2-carboxamide]",< 10,100 to 1000,,,
"Cc1nc(C(O)C(F)F)c(-c2c(-c3cccc(C#N)c3F)nc(N)c3nc(Cc4ccccn4)nn23)o1 (stereo not shown) [Example 87, 3-(8-amino-5-(4-(2,2-difluoro-1-hydroxyethyl)-2-methyloxazol-5-yl)-2-(pyridin-2-ylmethyl)-[1,2,4]triazolo[1,5-a]pyrazin-6-yl)-2-fluorobenzonitrile]",< 10,10 to 100,,,
"N#Cc1cccc(-c2nc(N)c3nc(S(=O)(=O)c4ccccc4)nn3c2-c2ccncn2)c1 [Example 60, 3-(8-Amino-2-(phenylsulfonyl)-5-(pyrimidin-4-yl)-[1,2,4]triazolo[1,5-a]pyrazin-6-yl)benzonitrile]",< 10,10 to 100,,,
"CN(C)Cc1cccc(F)c1C(O)c1nc2c(N)nc(-c3cccc(C#N)c3)c(-c3ccncn3)n2n1 (single isomer, unassigned) [Example 101, 3-(8-amino-2-((2-((dimethylamino)methyl)-6-fluorophenyl)(hydroxy)methyl)-5-(pyrimidin-4-yl)-[1,2,4]triazolo[1,5-a]pyrazin-6-yl)benzonitrile]",,< 10,,< 10,
"N#Cc1cccc(-c2nc(N)c3nc(C(O)c4c(F)cccc4CN4CCCC4)nn3c2-c2ccncn2)c1 (single isomer, unassigned) [Example 110, 3-(8-amino-2-((2-fluoro-6-(pyrrolidin-1-ylmethyl)phenyl)(hydroxy)methyl)-5-(pyrimidin-4-yl)-[1,2,4]triazolo[1,5-a]pyrazin-6-yl)benzonitrile]",,100 to 1000,< 10,,
